Experimental data published in ChEMBL document CHEMBL5104092, “An insight into the recent development of the clinical candidates for the treatment of malaria and their target proteins” (Eur J Med Chem, 2021).
≈ marks a conversion by molar mass, not a printed value. Values belong to the compound of their own block, whether it stands above or below them.

What was measured:
[1] = Dissociation constant, pKa of compound; assay type: physicochemical
Plasmodium falciparum [2] = experiment: Antimalarial activity against Plasmodium falciparum K1; assay type: functional, organism-based
Plasmodium falciparum [3] = experiment: Antimalarial activity against Plasmodium falciparum NF54; assay type: functional, organism-based
[4] = Inhibition of Plasmodium flaciparum 3D7_2 membrane recombinant ATP4 expressed in Escherichia coli BL21 (DE3) cells; design: species or system Plasmodium falciparum
[5] = Inhibition of Plasmodium flaciparum B7 membrane recombinant ATP4 expressed in Escherichia coli BL21 (DE3) cells; design: species or system Plasmodium falciparum
[6] = Selectivity ratio of IC50 for Plasmodium falciparum B7 membrane recombinant Na+ dependent ATPase activity to IC50 for Plasmodium falciparum 3D7_2 membrane recombinant Na+ dependent ATPase activity
HepG2 = experiment: Cytotoxicity against human HepG2 cells; assay type: functional, cell-based
Plasmodium falciparum [7] = experiment: Antimalarial activity against Plasmodium falciparum Dd2; assay type: functional, organism-based
Plasmodium yoelii = experiment: In vivo antimalarial activity against Plasmodium yoelii infected in mouse; assay type: functional
[8] = Inhibition of Plasmodium falciparum recombinant DHODH incubated for 5 mins by microplate reader method
[9] = Binding affinity to Plasmodium falciparum quadruple mutant DHFR assessed as inhibition constant
Plasmodium falciparum [10] = experiment: In vivo antimalarial activity against Plasmodium falciparum infected in NMRI mouse; assay type: functional
CYP450 = CYP450 (Homo sapiens, UniProt P04798+P05177+P05181+P08684+P10632+P10635+P11509+P11712+P13584+P20813+P20815+P20853+P24462+P24903+P33260+P33261+P51589+P78329+P98187+Q02928+Q08477+Q16678+Q16696+Q5TCH4+Q6VVX0+Q7Z449+Q8TAV3+Q96SQ9+Q9HB55); experiment: Inhibition of CYP450 (unknown origin); assay type: ADME, protein assay
Plasmodium falciparum [11] = experiment: In vivo antimalarial activity against Plasmodium falciparum infected in SCID mouse; assay type: functional
Plasmodium falciparum [12] = experiment: Antimalarial activity against chloroquine-sensitive Plasmodium falciparum 3D7 by Giemsa staining method; assay type: functional, organism-based
Plasmodium falciparum [13] = experiment: Antiplasmodial activity against chloroquine sensitive Plasmodium falciparum NF54 by parasite lactate dehydrogenase assay; assay type: functional, organism-based
Plasmodium berghei [14] = experiment: In vivo antimalarial activity against Plasmodium berghei infected in mouse model; assay type: functional
[15] = biological target: Voltage-gated inwardly rectifying potassium channel KCNH2 (Homo sapiens, UniProt Q12809); experiment: Inhibition of human ERG; assay type: toxicity
Plasmodium berghei [16] = experiment: In vivo antimalarial activity against Plasmodium berghei infected in Balb/C mouse model assessed as parasite clearance at 30 mg/kg, po administered every 24 hrs for 3 days followed by chloroquine addition measured on day 4 by flow cytometric analysis relative to control; assay type: functional; conditions: time 4 day
Plasmodium falciparum [17] = experiment: Antimalarial activity against Plasmodium falciparum 3D7; assay type: functional, organism-based
[18] = Drug elimination in human urine assessed as unchanged fraction; assay type: ADME; conditions: read-out: Drug excretion
L6 = experiment: Cytotoxicity against rat L6 cells; assay type: functional, cell-based
[19] = test system: Plasmodium yoelii nigeriensis; experiment: In vivo antimalarial activity against Plasmodium yoelii nigeriensis infected in Swiss mouse; assay type: functional
Plasmodium falciparum [20] = experiment: Antimalarial activity against chloroquine-sensitive Plasmodium falciparum D6 assessed as parasitic LDH activity incubated for 72 hrs by malstat reagent method; assay type: functional, organism-based; conditions: D6, 72 h
Plasmodium falciparum [21] = experiment: Antimalarial activity against chloroquine-sensitive Plasmodium falciparum W2 assessed as parasitic LDH activity incubated for 72 hrs by malstat reagent method; assay type: functional, organism-based; conditions: W2, 72 h
[22] = Cytotoxicity against African green monkey Vero cells; assay type: toxicity, cell-based, Chlorocebus sabaeus
[23] = Inhibition of Plasmodium falciparum DHODH expressed in Escherichia coli BL21 (DE3) cells by DCIP staining method

Chain of Voltage-gated inwardly rectifying potassium channel KCNH2 (Q12809 whole entry): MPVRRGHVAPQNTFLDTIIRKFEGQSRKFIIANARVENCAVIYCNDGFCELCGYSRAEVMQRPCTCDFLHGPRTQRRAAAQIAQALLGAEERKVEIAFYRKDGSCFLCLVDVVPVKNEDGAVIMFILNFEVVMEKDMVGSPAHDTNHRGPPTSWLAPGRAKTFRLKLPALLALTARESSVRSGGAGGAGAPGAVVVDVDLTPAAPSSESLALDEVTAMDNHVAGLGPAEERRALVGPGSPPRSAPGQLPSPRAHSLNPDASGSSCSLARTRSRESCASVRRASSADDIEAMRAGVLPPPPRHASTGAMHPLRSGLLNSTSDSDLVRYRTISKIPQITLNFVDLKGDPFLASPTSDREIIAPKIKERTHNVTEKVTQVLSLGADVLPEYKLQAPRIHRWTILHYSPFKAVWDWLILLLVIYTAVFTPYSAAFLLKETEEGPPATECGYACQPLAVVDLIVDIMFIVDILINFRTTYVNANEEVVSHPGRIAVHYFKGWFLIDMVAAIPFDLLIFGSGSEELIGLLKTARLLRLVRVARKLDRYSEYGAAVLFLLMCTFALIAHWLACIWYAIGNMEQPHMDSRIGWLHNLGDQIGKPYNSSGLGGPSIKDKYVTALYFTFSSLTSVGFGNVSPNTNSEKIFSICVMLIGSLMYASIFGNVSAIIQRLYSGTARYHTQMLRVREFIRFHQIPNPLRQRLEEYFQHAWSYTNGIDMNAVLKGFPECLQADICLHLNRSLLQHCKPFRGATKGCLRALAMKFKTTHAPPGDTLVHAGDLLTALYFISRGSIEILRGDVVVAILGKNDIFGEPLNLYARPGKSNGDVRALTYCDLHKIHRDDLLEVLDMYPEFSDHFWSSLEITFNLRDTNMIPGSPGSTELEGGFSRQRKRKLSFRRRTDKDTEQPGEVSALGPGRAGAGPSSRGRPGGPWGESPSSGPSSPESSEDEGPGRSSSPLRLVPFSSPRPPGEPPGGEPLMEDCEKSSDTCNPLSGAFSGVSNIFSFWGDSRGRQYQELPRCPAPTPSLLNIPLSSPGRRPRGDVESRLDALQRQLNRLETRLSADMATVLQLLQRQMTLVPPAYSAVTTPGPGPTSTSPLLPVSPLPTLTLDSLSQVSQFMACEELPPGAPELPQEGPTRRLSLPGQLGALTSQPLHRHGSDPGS

- pKa [1]: 7.2
- IC50 (Plasmodium falciparum [2]): 9.6 nM
- IC50 (Plasmodium falciparum [3]): 91.5 nM
Structure (SMILES): CC(C)(C)c1cc(O)c(CN)c(C(C)(C)C)c1

Structure (SMILES): CCC(CC)Nc1nc(C)c(C#N)c2ccccc12
- IC50 [4]: 70 nM
- IC50 [5]: 429 nM
- Ratio IC50 [6]: 6

Structure (SMILES): COc1cc2[nH]c(C)c(-c3ccc(Oc4ccc(OC(F)(F)F)cc4)cc3)c(=O)c2cc1Cl
- IC50 (HepG2): > 10000 nM
- EC50 (Plasmodium falciparum [7]): 2.5 nM
- ED90 (Plasmodium yoelii): 0.02 mg/kg

Structure (SMILES): c1c2c(cc3c1OCO3)-c1cc3ccc4c(c3c[n+]1CC2)OCO4 [COPTISINE]
- IC50 [8]: 1830 nM

- EC50 (Plasmodium falciparum [2]): 5 nM
- EC50 (Plasmodium falciparum [3]): 2 nM
Structure (SMILES): COC(=O)N1CCN(C(=N)c2cccc(NC(=O)Nc3ccc(S(=O)(=O)NCc4ccc(S(N)(=O)=O)cc4)cc3)c2)CC1

Structure (SMILES): CCc1nc(N)nc(N)c1OCCCOc1ccccc1CCC(=O)O
- pKa [1]: 4.5
- Ki [9]: 0.54 nM

- pKa [1]: 4.6
Structure (SMILES): C[C@H]1Cc2c([nH]c3cc(Cl)c(F)cc23)[C@@]2(N1)C(=O)Nc1ccc(Cl)cc12 [CIPARGAMIN]
- ED90 (Plasmodium falciparum [10]): 2.7 mg/kg

Structure (SMILES): FC1CCN(CCOc2ccc(C3CCC4(CC3)OOC3(OO4)C4CC5CC(C4)CC3C5)cc2)CC1 (stereo unspecified)
- pKa [1]: 8.4
- IC50 (CYP450): > 20000 nM
- ED90 (Plasmodium falciparum [11]): 11 mg/kg
- IC50 (Plasmodium falciparum [2]): 4.2 nM
- IC50 (Plasmodium falciparum [3]): 5.2 nM

- IC50 (Plasmodium falciparum [12]): 11.3 µg/mL (≈ 22 µM)
Structure (SMILES): O=[N+]([O-])c1cccc(-c2csc(Nc3nc(NNc4ccccc4)nc(NNc4ccccc4)n3)n2)c1

- IC50 (Plasmodium falciparum [13]): 26000 nM
Structure (SMILES): CCOC(=O)C(=CNc1cccc(N(C)C)c1)C(=O)OCC

Structure (SMILES): CC(=O)N1CCN(c2ccc(CN(C(=O)/C=C/c3ccc(C(C)(C)C)cc3)[C@@H](Cc3ccccc3)C(=O)N3CCN(Cc4ccc(C#N)cc4)CC3)cc2)CC1
- pKa [1]: 6.8
- ED90 (Plasmodium falciparum [11]): 3.7 mg/kg
- IC50 (Plasmodium falciparum [2]): 0.3 nM
- IC50 (Plasmodium falciparum [3]): 0.4 nM

Structure (SMILES): CC1(C)c2nc(-c3ccc(F)cc3)c(Nc3ccc(F)cc3)n2CCN1C(=O)CN [GANAPLACIDE]
- ED99 (Plasmodium berghei [14]): 2.2 mg/kg
- pKa [1]: 7.3
- IC50 (CYP450): > 6000 nM
- IC50 [15]: 13400 nM

Structure (SMILES): CN1CCN(c2nc(Cl)cc(NCCNc3ccnc4cc(Cl)ccc34)n2)CC1
- Activity (Plasmodium berghei [16]): 93.9%

- pKa [1]: 5
- EC50 (Plasmodium falciparum [7]): 3 nM
- EC50 (Plasmodium falciparum [17]): 9 nM
Structure (SMILES): COc1ccc(NC(=O)N2CCCCN3[C@H](CN(C)C)[C@H](c4ccc(C#Cc5ccccc5)cc4)[C@@H]3C2)cc1
- CC50 (HepG2): 9000 nM
- IC50 [15]: 2100 nM

- dose excreted [18]: < 1%
Structure (SMILES): COc1cc(NC(C)CCCN)c2ncccc2c1 (stereo unspecified) [PRIMAQUINE]

- pKa [1]: 7.5
- IC50 (Plasmodium falciparum [2]): 0.46 nM
- IC50 (Plasmodium falciparum [3]): 10 nM
Structure (SMILES): CC(=O)N1CCN(c2ccc(CN(C(=O)/C=C/c3ccc(C(F)(F)F)cc3)[C@@H](Cc3ccccc3)C(=O)N3CCN(Cc4ccc(N(C)CCO)cc4)CC3)cc2)CC1
- ED90 (Plasmodium falciparum [11]): 8.4 mg/kg
- IC50 (L6): 8850 nM

Structure (SMILES): C=C(c1ccc(OC(C)(C)COC(=O)CCC(=O)O)cc1)C1COC2(OO1)C1CC3CC(C1)CC2C3 (stereo unspecified)
- pKa [1]: 4
- IC50 (Plasmodium falciparum [17]): 49 nM
- ED90 [19]: 18.3 mg/kg

- IC50 (Plasmodium falciparum [20]): 1180 nM
- IC50 (Plasmodium falciparum [21]): 1320 nM
Structure (SMILES): c1cc(N2CCOCC2)nc(NCCNc2nc(N3CCOCC3)nc(N3CCOCC3)n2)n1
- IC50 [22]: > 10100 nM

- IC50 [23]: 2900 nM
Structure (SMILES): COC(=O)[C@]1(C)C[C@H](c2ccccc2)N2[C@@H](C)CC(=O)N21

- dose excreted [18]: < 1%
Structure (SMILES): CCN(CC)CCCC(C)Nc1cc(OC)cc2cccnc12 (stereo unspecified) [PAMAQUINE]
